Read-outs that look alike come from different tables or passages of the source.
Legend:
clinical = details: human, in vivo
From the text: CXA-201 plasma concentrations from 6 subjects with ESRD following a single dose without HD and a second dose with HD were used to develop a pPK model (Phoenix NLME, Pharsight).

P. aeruginosa = details: neutropenic murine-thigh infection model; cited from earlier work
[1] = Phase I PK studies in subjects with varying degrees of renal function (Example 11); type: in vivo, human
From the text: Male and female subjects, aged 18 to 79 years, with varying degrees of renal function were enrolled in two, prospective, open-label, phase I studies of intravenous ceftolozane/tazobactam. A total of 36 subjects were enrolled into cohorts based on degree of renal function: normal (n=11), mild impairment (n=6), moderate impairment (n=7), severe impairment (n=6), and ESRD on HD (n=6). To ensure subjects with ESRD were receiving effective HD, a target adequacy of HD calculated from the pre- and post-blood urea nitrogen ratios (Kt/V) of at least 1.2 for a minimum of 3 months prior to enrollment was required. Renal impairment groups were classified according to the 2010 U.S.

[2] = Population pharmacokinetic analysis of 10 clinical studies (Example 7); type: in vivo, human
From the text: Base model development. […] Intrinsic covariates analyzed included body weight, age, gender, ethnicity, and baseline calculated CrCL). The CrCL was estimated using the Cockcroft-Gault formula: […] […] Final population PK model: evaluation and performance. […] Smaller shrinkage ≦0.2 indicates good individual estimates.

[3] = cited from earlier work
[4] = Pharmacokinetics of ceftolozane/tazobactam in healthy volunteers; type: in vivo, human
[5] = Phase 1 single dose PK of 750 mg ceftolozane/tazobactam in severe renal impairment and ESRD on hemodialysis (Example 8); type: in vivo, human; details: for AUC(0-t) / Cmax / half-life / Tmax / AUC(0-inf) / clearance / Vd: both sexes, human, plasma; for Cmax: read-out: Cmax, Mean (CV %); for half-life: read-out: t1/2, Mean (CV %) (converted); for Tmax: read-out: tmax, Median (minimum, maximum); for AUC(0-inf): read-out: AUC∞, Mean (CV %); for clearance: read-out: CL, Mean (CV %) (converted); for Vd: read-out: Vss, Mean (CV %)
Description: This was a Phase 1, multicenter, prospective, open-label study of 750 mg ceftolozane/tazobactam (as CXA-201) administered IV in male and female adult subjects with severe renal impairment (estimated CLCR<30 mL/min) and subjects with end-stage renal disease (ESRD) on hemodialysis (HD). The primary objective of the study was to determine the PK profile of ceftolozane/tazobactam in subjects with severe renal impairment and subjects with ESRD on HD and to determine the effect of HD on the clearance of ceftolozane/tazobactam.
Subjects with severe renal impairment received a single IV 1-hour infusion of 750 mg ceftolozane/tazobactam on Day 1. […] Subjects in this cohort received an IV dose of 750 mg ceftolozane/tazobactam as a 1 hour infusion immediately after their first HD session on Day 1 (postdialysis, approximately 72 hours prior to the next HD session) and a second dose of ceftolozane/tazobactam approximately 2 hours before their second HD session on Day 4 of the study. Infusion of ceftolozane/tazobactam was completed approximately 1 hour before the start of HD.
Subjects in both cohorts had urine (if not anuric) and plasma samples collected for determination of levels of ceftolozane, tazobactam and the M1 metabolite of tazobactam; subjects in the ESRD on HD cohort also had dialysate fluid samples collected for PK assessment. Plasma, urine, and dialysate levels of ceftolozane, tazobactam, and its metabolite M1 collected over a prespecified interval were determined by LC/MS/MS assay.
All subjects underwent hemodialysis for 3 to 4 hours using a high-flux membrane (either 1.4, 1.8, or 1.9 m^2) on Days 1, 4, and 6 as scheduled. Average blood flow rate was 264 to 600 mL/min and average dialysis flow rate was either 600 or 800 mL/min for all subjects with ESRD.

[6] = cited from earlier work; remark: listed apart in the source
[7] = moderate renal impairment, single 1,000 mg/500 mg dose
[8] = severe renal impairment, single 500 mg/250 mg dose
[9] = intravenous, 750 mg, ESRD on HD, second infusion Day 4, start of infusion to end of dialysis
[10] = iv, 750 mg, ESRD on HD, Day 1 IV infusion of 750 mg (non-hemodialysis phase)
[11] = iv, 750 mg, ESRD on HD, second IV infusion of 750 mg on Day 4 (during HD)
[12] = iv, 750 mg, severe renal impairment, single IV 1-hour infusion of 750 mg ceftolozane/tazobactam

Vd (clinical): 6 L
clearance (clinical): 5.67 mL/min
increase of CL by HD (clinical): 60 fold
increase of Vc by HD (clinical): 4.7 fold
extraction ratio ([1]; 1 h after the start of HD): 42%
extraction ratio ([1]; 2 h after the start of HD): 48%
median Cmax in plasma higher compared with normal renal function, dose normalized ([1]; ESRD during non-HD): 1.2 fold
average extraction ratio during HD ([1]; ESRD on HD): 46%
median RDHD (percent reduction in plasma concentration during HD) ([1]; ESRD on HD): 92%
reduction in overall exposure based on the AUC0-∞ on and off HD ([1]; ESRD on HD): approximately 66%
plasma concentration rebound peak following HD, of the original Cmax ([1]; ESRD, period following HD): approximately 17%
extraction ratio ([1]; at end of HD): 47%
clearance ([1]; both sexes, human, dialysate and plasma, intravenous, ESRD on HD, read-out: median dialysis clearance (CLD) (converted)): 95.8 mL/min
half-life ([1]; both sexes, human, plasma, intravenous, ESRD on HD, read-out: t1/2 during the HD period (converted)): 1.13 h
increase of median AUC0-∞ compared with normal renal function [1, 7]: 2.5 fold
increase of median Cmax compared with normal renal function [1, 7]: 1.2 fold
increase of median AUC0-∞ compared with dose-normalized exposure in normal renal function [1, 8]: 4.4 fold
increase of median Cmax compared with dose-normalized exposure in normal renal function [1, 8]: 1.3 fold
Vc ([2]; cIAI): 18.2 L
Vc ([2]; cUTI, at 74 kg body weight): 13.8 L
between-subject variability (BSV) of CL ([2]; final population PK model): 33.0%
clearance ([2]; human, plasma, intravenous, patients with cIAI, at CrCL=109 mL/min, read-out: CL (converted)): 104 mL/min
CL higher than that in healthy subjects ([2]; patients with cUTI and cIAI): about 20%
CL ([2]; patients with cUTI, at CrCL=109 mL/min): 6.18 L/h
clearance ([4]; human, plasma, intravenous, after a single dose of CXA-201, read-out: plasma CL): 68.3 to 112 mL/min
CL renal ([4]; human, urine and plasma, intravenous, after a single dose of CXA-201, read-out: renal clearance): 56.8 to 112 mL/min
excreted in the urine as unchanged parent drug ([4]; single 1.5 g intravenous dose of CXA-201, healthy male adults): greater than 95%
AUC(0-t) ([5]; intravenous, 750 mg, ESRD on HD, second infusion Day 4, approximately 6 hours from start of infusion to end of dialysis, read-out: AUClast, Mean (CV %)): 87.5 µg·h/mL
Cmax [5, 9]: 40900 ng/mL
half-life [5, 9]: 1.25 h
Tmax [5, 9]: 1 h
AUC(0-t) ([5]; intravenous, 750 mg, subjects with ESRD, read-out: Exposure (AUC48h) After HD (Day 1), Median (Range)): 903 µg·h/mL
AUC(0-t) ([5]; intravenous, 750 mg, subjects with ESRD, read-out: Exposure (AUC48h) During HD (Day 3), Median (Range)): 298 µg·h/mL
AUC(0-inf) [5, 10]: 1680 µg·h/mL
clearance [5, 10]: 6.67 mL/min
Cmax [5, 10]: 44500 ng/mL
Vd [5, 10]: 19.2 L
half-life [5, 10]: 39.8 h
AUC(0-t) ([5]; iv, 750 mg, ESRD on HD, Day 1 IV infusion of 750 mg (non-hemodialysis phase), through 48 hours, read-out: AUClast, Mean (CV %)): 910 µg·h/mL
Cmax [5, 11]: 40900 ng/mL
half-life [5, 11]: 43.5 h
AUC(0-t) ([5]; iv, 750 mg, ESRD on HD, second IV infusion of 750 mg on Day 4 (during HD), through 44 hours, read-out: AUClast, Mean (CV %)): 304 µg·h/mL
AUC(0-t) ([5]; iv, 750 mg, severe renal impairment, single IV 1-hour infusion of 750 mg ceftolozane/tazobactam, through 48 hours, read-out: AUClast, Mean (CV %)): 511 µg·h/mL
Cmax [5, 12]: 49900 ng/mL
AUC(0-inf) [5, 12]: 537 µg·h/mL
clearance [5, 12]: 16.7 mL/min
Vd [5, 12]: 13.8 L
half-life [5, 12]: 11.1 h
Tmax ([5]; ESRD on HD, second IV infusion of 750 mg on Day 4 (during HD)): 1 h
AUC48h Ratio (Day 3:1), Median (Range) ([5]; subjects with ESRD, during HD vs after HD): 0.34 (0.26 − 0.48)
Percent Removed, Median (Range) ([5]; subjects with ESRD, hemodialysis): 66 (52 − 74) Percent
SMILES: Cn1c(N)c(NC(=O)NCCN)c[n+]1CC1=C(C(=O)[O-])N2C(=O)[C@@H](NC(=O)/C(=N\OC(C)(C)C(=O)O)c3nsc(N)n3)[C@H]2SC1 [Ceftolozane, (6R,7R)-3-[(5-amino-4-{[(2-aminoethyl)carbamoyl]amino}-1-methyl-1H-pyrazol-2-ium-2-yl)methyl]-7-({(2Z)-2-(5-amino-1,2,4-thiadiazol-3-yl)-2-[(1-carboxy-1-methylethoxy)imino]acetyl}amino)-8-oxo-5-thia-1-azabicyclo[4.2.0]oct-2-ene-2-carboxylate]
free-drug (f) % T>MIC associated with a 1-log10 CFU reduction from baseline (P. aeruginosa): 32.2
free-drug (f) % T>MIC associated with net bacterial stasis (P. aeruginosa): 24.8
protein binding [3]: approximately 20%
terminal elimination half-life (t½β) ([6]; healthy volunteers): approximately 2.5 hours
Terminal elimination half-lives (t1/2) ([6]; patients with normal renal function): approximately 2.5 h

— patent US20150072968A1, “Treating Infections with Ceftolozane/Tazobactam in Subjects Having Impaired Renal Function” (Calixa Therapeutics, Inc., priority 2013, published 2015)
